Source: patent publication US6420600B1, “Phenylalaninol derivatives” (Hoffman-La Roche Inc., priority 1999, dated 2002)

Assays:
[1] = system: Adult male cynomolgus monkeys; assay: Acute airway inflammation in the atopic primate (A. suum antigen challenge, bronchoalveolar lavage cell counts); type: in vivo, Macaca fascicularis; settings: p.o., 2 hours prior to A. suum antigen challenge; lavage at 24 hour after challenge; relative to vehicle treated control animals
Experimental: Acute airway inflammation in the atopic primate.
Airway inflammation in the monkey was determined using a modification of the protocol described by Turner et al. (Turner et al., 1994). Adult male cynomolgus monkeys (Macaca fascicularis, Hazelton Labs, Denver, Pa.) weighing between 3.6-5.8 kg were used in these studies.
On the day of each experiment the animals were anesthetized with ketamine hydrochloride, 12 mg/kg, and xylazine, 0.5 mg/kg, intubated with a cuffed endotracheal tube (3 mm, Mallinckrodt Medical, St. Louis, Mo.), then seated in an upright position in a specially designed Plexiglass chair (Plas-Labs, Lansing, Mich.). The endotracheal tube was connected to a heated Fleisch pneumotachograph. Airflow was measured via a Validyn differential pressure transducer (DP 45-24) that was attached to the pneumotachograph. Transpulmonary pressure was measured via a second Validyne transducer (DP 45-24) connected between a sidearm of the tracheal cannula and a 18-gauge intrapleural needle inserted in the intercostal space located below the left nipple. […]
Airway inflammation was induced by exposing the animal to an aerosol of A. Suum extract for 60 sec. […] Airway inflammation was assessed by inserting a pediatric bronchoscope into the airway lumen down to about the 4 or 5th generation bronchi and gently lavaging with 3 ×2 ml aliquots of sterile Hanks Balanced Salt Solution. […]

melting point: 198 to 200 °C
Structure (SMILES): Cc1cccc(Cl)c1C(=O)N[C@H](CO)Cc1ccc(NC(=O)c2c(Cl)cccc2Cl)cc1 [Example 1, 4-[[(2,6-dichlorophenyl)carbonyl]amino]-N-[(2-chloro-6-methylphenyl)carbonyl]-L-phenylalaninol]
number of inflammatory cells present in the lavage fluid [1]: significant decrease
percent of inflammatory cells present in the lavage fluid [1]: significant decrease
